# Test results reported in US7557137B2, “Gamma-lactams as beta-secretase inhibitors” (Bristol-Myers Squibb Company, priority 2002, dated 2009).
# Target: T1, BACE enzyme (Homo sapiens, UniProt P56817)
# T1 construct: the catalytic domain, appended by a C-terminal poly-histidine tag, is secreted out into the cellular medium; made in house; host or cells: Drosophila melanogaster S2 cells
# Test: BACE enzyme inhibition, fluorescence-quenched peptide substrate MCA-EVNLDAEFK(DNP)
# Format: biochemical
# Details: 50 mM acetate, pH 4.5, 0.25 mg/ml bovine serum albumin, 2.5% DMSO; read-out: Activity Rating (based on IC50 values)
# Excerpt: There are a number of methods by which inhibitors of the BACE enzyme can be identified experimentally. The enzyme can be obtained from membrane samples from natural tissues or cultured cells or can be expressed recombinantly in a host cell by well known methods of molecular biology. […] The enzymatic activity and/or ligand binding capability of the enzyme can be assessed within these membrane samples, or the enzyme can be purified to varying extents. As an illustrative example, the nucleic acid sequence encoding the pro and catalytic domains of human BACE can be appended on the 5′ end with an untranslated and signal sequence from the gene for acetylcholinesterase, and on the 3′ end with a sequence encoding a poly-histidine tag. This cDNA can then be expressed in Drosophila melanogaster S2 cells in which the signal and pro sequences of the transcribed/translated protein are removed by cellular proteases and the catalytic domain, appended by a C-terminal poly-histidine tag, is secreted out into the cellular medium. The enzyme can then be purified from the culture medium by nickel affinity chromatography by methods well known to those trained in the art [Mallender, W. et al., (2001) “Characterization of recombinant, soluble beta-secretase from an insect cell expression system.” Mol. Pharmacol. 59: 619-626]. Similar strategies for expressing and purifying various forms of BACE in bacterial, mammalian and other cell types would be known to one skilled in the art.
# The enzyme thus obtained can be put in contact with a test compound and with an appropriate substrate on which enzyme-mediated peptide bond hydrolysis is known to occur. The ability of the test compound to diminish the rate of substrate hydrolysis can then be quantified as a measure of inhibition potency. Appropriate substrates can be prepared as peptides, proteins, or chemically modified versions of peptides or proteins, that contain an amino acid sequence that is recognized as a substrate by the enzyme. For example, the amino acid sequence immediately proximal to the beta-cleavage site within Swedish mutant APP is known to be recognized as a substrate for BACE. […] Longer peptide and protein substrates can also be designed by extending the amino acid composition on the N-terminal, the C-terminal, or both ends.
# In one known application of (SEQ. ID. NO.:1), X is a 7-methoxycoumarin-4-acetyl (MCA) group and Y is a dinitrophenyl (DNP) group [Marcinkeviciene, J. et al., (2001) “Mechanism of inhibition of beta-site amyloid precursor protein-cleaving enzyme (BACE) by a statine-based peptide.” J. Biol. Chem. 276: 23790-23794]. When this peptide is intact, the natural fluorescence of the MCA group is quenched by its proximity to the DNP group. […] The increase in fluorescence intensity that accompanies enzyme-mediated peptide hydrolysis can be measured as a function of time to quantify the velocity of enzyme catalysis. In a typical assay system the BACE enzyme is diluted into a buffer system composed of 50 mM acetate, pH 4.5 containing 0.25 mg/ml bovine serum albumin. To this is added neat dimethyl sulfoxide (DMSO) or a stock solution of test compound dissolved in DMSO so that the final amount of DMSO in all assays is held constant at 2.5% (v:v). The enzymatic reaction is then initiated by addition of a stock solution of the substrate peptide to a known concentration. The fluorescence increase with time after substrate addition is monitored with an appropriate fluorescence detection instrument, such as a microplate reader or spectrofluorometer. The slope of the signal vs. time plot (progress curve) for samples to which only DMSO was added is taken as a measure of the uninhibited velocity and represents 100% enzymatic activity.
# T1 sequence (P56817 75-416 limits assumed): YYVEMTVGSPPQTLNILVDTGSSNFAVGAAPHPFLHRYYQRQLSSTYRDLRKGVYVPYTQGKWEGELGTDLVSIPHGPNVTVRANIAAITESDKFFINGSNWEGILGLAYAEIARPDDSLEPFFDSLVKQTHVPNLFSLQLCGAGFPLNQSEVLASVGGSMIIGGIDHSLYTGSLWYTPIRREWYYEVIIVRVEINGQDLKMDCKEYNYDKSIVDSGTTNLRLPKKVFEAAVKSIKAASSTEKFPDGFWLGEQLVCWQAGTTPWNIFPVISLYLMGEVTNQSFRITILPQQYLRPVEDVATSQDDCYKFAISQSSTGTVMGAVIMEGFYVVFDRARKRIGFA
row,Compound,IC50 [nM]
1,"CCOC(=O)N[C@]1(C(C)CC)CCN([C@@H](CCc2ccccc2)C(=O)N[C@@H](Cc2ccccc2)[C@H](O)CNCc2cccc(OC)c2)C1=O (single isomer, unassigned) [Example 14]",< 100
2,"CCC(C)[C@@]1(NC(=O)OC)CCN([C@@H](CCc2ccccc2)C(=O)N[C@@H](Cc2ccccc2)[C@@H](O)CNCc2cccc(OC)c2)C1=O (single isomer, unassigned) [Example 15]",1000 to 50000
3,"CCC(C)[C@@]1(NC(=O)OC)CCN([C@@H](CCc2ccccc2)C(=O)N[C@@H](Cc2ccccc2)[C@H](O)CNCc2cccc(OC)c2)C1=O (single isomer, unassigned) [Example 16]",< 100
4,"CCC(C)[C@@]1(NC(=O)CCc2cnc[nH]2)CCN([C@@H](CCc2ccccc2)C(=O)N[C@@H](Cc2ccccc2)[C@@H](O)CNCc2cccc(OC)c2)C1=O (single isomer, unassigned) [Example 21]",100 to 1000
5,"CCC(C)[C@@]1(NC(=O)CN)CCN([C@@H](CCc2ccccc2)C(=O)N[C@@H](Cc2ccccc2)[C@H](O)CNCc2cccc(OC)c2)C1=O (single isomer, unassigned) [Example 22]",100 to 1000
6,"CCC(C)[C@@]1(NC(=O)CN)CCN([C@@H](CCc2ccccc2)C(=O)N[C@@H](Cc2ccccc2)[C@@H](O)CNCc2cccc(OC)c2)C1=O (single isomer, unassigned) [Example 23]",1000 to 50000
7,"COc1cccc(CNC[C@@H](O)[C@H](Cc2ccccc2)NC(=O)[C@H](CCc2ccccc2)N2CCC(CC(C)C)(NC(C)=O)C2=O)c1 (stereo in doubt) [Example 28, (2S)-2-(3(S)-acetylamino-3-(isobutyl)-2-oxo-pyrrolidin-1-yl)-N-[(1S,2R)-1-benzyl-2-hydroxy-3-(3-methoxy-benzylamino)-propyl]-4-phenyl-butyramide]",< 100
8,"CC(=O)NC1(CC(C)C)CCN([C@@H](CCc2ccccc2)C(=O)N[C@@H](Cc2ccccc2)[C@H](O)CNCC2CC2)C1=O (stereo in doubt) [Example 32, (2S)-2-(3(S)-acetylamino-3-(isobutyl)-2-oxo-pyrrolidin-1-yl)-N-[(1S,2R)-1-benzyl-2-hydroxy-3-(cyclopropylmethyl)amino-propyl]-4-phenyl-butyramide]",100 to 1000
9,"COc1cccc(CNC[C@@H](O)[C@H](Cc2cc(F)cc(F)c2)NC(=O)[C@H](CCc2ccccc2OC)N2CCC(CC3CC3)(NC(C)=O)C2=O)c1 (stereo in doubt) [Example 38, (2S)-2-(3(S)-acetylamino-3-(cyclopropylmethyl)-2-oxo-pyrrolidin-1-yl)-N-[(1S,2R)-1-(3,5-difluorobenzyl)-2-hydroxy-3-(3-methoxybenzylamino)-propyl]-4-(2-methoxyphenyl)-butyramide]",< 100
10,"COc1cccc(CNC[C@@H](O)[C@H](Cc2cc(F)cc(F)c2)NC(=O)[C@H](CCc2cccc(F)c2)N2CCC(CC3CC3)(NC(C)=O)C2=O)c1 (stereo in doubt) [Example 40, (2S)-2-(3(S)-acetylamino-3-(cyclopropylmethyl)-2-oxo-pyrrolidin-1-yl)-N-[(1S,2R)-1-(3,5-difluorobenzyl)-2-hydroxy-3-(3-methoxybenzylamino)-propyl]-4-(3-fluorophenyl)-butyramide]",< 100
11,"COc1cccc(CNC[C@@H](O)[C@H](Cc2cc(F)cc(F)c2)NC(=O)[C@H](CCc2ccc(F)cc2)N2CCC(CC3CC3)(NC(C)=O)C2=O)c1 (stereo in doubt) [Example 41, (2S)-2-(3(S)-acetylamino-3-(cyclopropylmethyl)-2-oxo-pyrrolidin-1-yl)-N-[(1S,2R)-1-(3,5-difluorobenzyl)-2-hydroxy-3-(3-methoxybenzylamino)-propyl]-4-(4-fluorophenyl)-butyramide]",< 100
12,"COc1cccc(CC[C@@H](C(=O)N[C@@H](Cc2cc(F)cc(F)c2)[C@H](O)CNCc2cccc(OC)c2)N2CCC(CC3CC3)(NC(C)=O)C2=O)c1 (stereo in doubt) [Example 42, (2S)-2-(3(S)-acetylamino-3-(cyclopropylmethyl)-2-oxo-pyrrolidin-1-yl)-N-[(1S,2R)-1-(3,5-difluorobenzyl)-2-hydroxy-3-(3-methoxybenzylamino)-propyl]-4-(3-methoxyphenyl)-butyramide]",< 100
13,"COc1cccc(CNC[C@@H](O)[C@H](Cc2cc(F)cc(F)c2)NC(=O)[C@H](CCc2ccccc2)N2CC[C@](NC(C)=O)(C(C)C)C2=O)c1 [Example 1, (2S)-2-(3-Acetylamino-3-isopropyl-2-oxo-pyrrolidin-1-yl)-N-[(1S,2R)-1-(3,5-difluoro-benzyl)-2-hydroxy-3-(3-methoxy-benzylamino)-propyl]-4-phenyl-butyramide]",< 100
14,"CC[C@H](C)[C@@]1(NC(C)=O)CCN([C@@H](CCc2ccccc2)C(=O)N[C@@H](Cc2cc(F)cc(F)c2)[C@H](O)CNCc2cccc(OC)c2)C1=O [Example 2, (2S)-2-(3(S)-Acetylamino-3-((S)-sec-butyl)-2-oxo-pyrrolidin-1-yl)-N-[(1S,2R)-1-(3,5-difluoro-benzyl)-2-hydroxy-3-(3-methoxy-benzylamino)-propyl]-4-phenyl-butyramide]",< 100
15,"CC[C@H](C)[C@@]1(NC(C)=O)CCN([C@@H](CCc2ccccc2)C(=O)N[C@@H](Cc2ccccc2)[C@H](O)CNCc2cccc(OC)c2)C1=O [Example 3, (2S)-2-(3(S)-Acetylamino-3-((S)-sec-butyl)-2-oxo-pyrrolidin-1-yl)-N-[(1S,2R)-1-benzyl-2-hydroxy-3-(3-methoxy-benzylamino)-propyl]-4-phenyl-butyramide]",< 100
16,"CCC(=O)N[C@]1([C@@H](C)CC)CCN([C@@H](CCc2ccccc2)C(=O)N[C@@H](CC(C)C)[C@H](O)CNCc2cccc(OC)c2)C1=O [Example 4, 2(S)-(3(S)-((S)-sec-butyl)-2-oxo-3-propionylamino-pyrrolidin-1-yl)-N—(S)-{1(R)-[1-hydroxy-2-(3-methoxy-benzylamino)-ethyl]-3-methyl-butyl}-4-phenyl-butyramide]",100 to 1000
17,"CC[C@H](C)[C@@]1(NC(=O)COC)CCN([C@@H](CCc2ccccc2)C(=O)N[C@@H](CC(C)C)[C@H](O)CNCc2cccc(OC)c2)C1=O [Example 5, (2S)-2-(3-((S)-sec-butyl)-3-(2-methoxy-acetylamino)-2-oxo-pyrrolidin-1-yl)-N—(S)-{1(R)-[1-hydroxy-2-(3-methoxy-benzylamino)-ethyl]-3-methyl-butyl}-4-phenyl-butyramide]",1000 to 50000
18,"COc1cccc(CNC[C@@H](O)[C@H](Cc2ccccc2)NC(=O)[C@H](CCc2ccccc2)N2CC[C@@](CC3CC3)(NC(C)=O)C2=O)c1 [Example 6, (2S)-2-(3(R)-Acetylamino-3(-cyclopropylmethyl)-2-oxo-pyrrolidin-1-yl)-N-[(1S,2R)-1-benzyl-2-hydroxy-3-(3-methoxy-benzylamino)-propyl]-4-phenyl-butyramide]",1000 to 50000
19,"COc1cccc(CNC[C@@H](O)[C@H](Cc2ccccc2)NC(=O)[C@H](CCc2ccccc2)N2CC[C@](CC3CC3)(NC(C)=O)C2=O)c1 [Example 7, (2S)-2-(3(S)-Acetylamino-3(-cyclopropylmethyl)-2-oxo-pyrrolidin-1-yl)-N-[(1S,2R)-1-benzyl-2-hydroxy-3-(3-methoxy-benzylamino)-propyl]-4-phenyl-butyramide]",< 100
20,CC[C@H](C)[C@@]1(NC(=O)[C@@H](N)CCC(=O)O)CCN([C@@H](CCc2ccccc2)C(=O)N[C@@H](Cc2ccccc2)[C@H](O)CNCc2cccc(OC)c2)C1=O [Example 8],< 100
21,"CC[C@H](C)[C@@]1(NC(=O)COC)CCN([C@@H](CCc2ccccc2)C(=O)N[C@@H](Cc2ccccc2)[C@H](O)CNCc2cccc(OC)c2)C1=O [Example 9, (2S)-2-(3(S)-(2-methoxy-acetylamino)-3-((S)-sec-butyl)-2-oxo-pyrrolidin-1-yl)-N-[(1S,2R)-1-benzyl-2-hydroxy-3-(3-methoxy-benzylamino)-propyl]-4-phenyl-butyramide]",< 100
